The values that follow come from patent US7141589B2, “Methods of inhibiting formation of vascular channels and methods of inhibiting proliferation” (The United States of America as represented by the …, priority 2001, dated 2006).

The target in assay [1] is T1, deoxyhypusine hydroxylase (Homo sapiens, UniProt Q9BU89).
T1 construct: endogenous in cells; host or cells: HUVEC
T1 sequence (Q9BU89 1-302): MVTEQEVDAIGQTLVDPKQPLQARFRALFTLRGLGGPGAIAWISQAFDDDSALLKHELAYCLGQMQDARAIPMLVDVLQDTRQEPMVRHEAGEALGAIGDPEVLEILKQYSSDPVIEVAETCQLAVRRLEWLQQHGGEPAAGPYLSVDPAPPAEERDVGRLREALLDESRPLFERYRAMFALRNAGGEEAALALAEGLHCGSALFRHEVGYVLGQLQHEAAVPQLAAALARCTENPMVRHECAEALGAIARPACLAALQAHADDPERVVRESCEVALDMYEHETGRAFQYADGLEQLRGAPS
As to the kind of experiment: Inhibition of deoxyhypusine hydroxylation in HUVEC ([3H]spermidine labeling). It counts as cell-based. Particulars: for IC50: [3H]spermidine, 18-20 h. The procedure: (§1) Exponentially growing HUVEC (5×10^5 cells per 60-mm dish) were incubated with 5 μCi/ml of [1,8-^3H]spermidine for 18 h in the presence or absence of the indicated concentrations of inhibitors. The cells were washed with PBS and harvested by centrifugation at 300×g for 5 minutes. Cellular proteins were precipitated with 10% trichloroacetic acid containing 1 mM each of unlabeled spermidine, spermine and putrescine, and the precipitates were washed three times to remove radiolabeled free polyamines. The washed precipitates were hydrolyzed in 6 N HCl for 18 h at 115° C. Radiolabeled hypusine and deoxyhypusine released by acid hydrolysis were separated by ion exchange chromatography using an automated Dionex D-400 amino acid analyzer (Park et al., (1982), supra). The radioactivity in the hypusine and the deoxyhypusine fractions was measured using a Beckman liquid scintillation spectrometer.

Assay [2] relates to HUVEC. As to the kind of experiment: Inhibition of DNA synthesis in HUVEC ([3H]thymidine incorporation). It counts as cell-based. Particulars: Homo sapiens, read-out: IC50 for inhibition of DNA synthesis. As for the experimental part: The test compounds were added at the indicated concentrations to exponentially growing HUVEC in 24-well plates (1×10^5 cells/well). […] DNA was precipitated with 5% trichloroacetic acid, washed once with 5% trichloroacetic acid, and dissolved in 0.2 ml of 0.2 N NaOH for measurement of radioactivity.
In general terms: Dividing cells build labelled thymidine or BrdU into new DNA.

For assay [3], the system named is HUVEC. In words: Tube formation on Matrigel by HUVEC. It counts as cell-based, human. Particulars: 18 h; for concentration at which disruption of tube formation was manifest: HUVEC on Matrigel. As for the experimental part:
The formation of tubes on Matrigel by HUVEC was assessed as described (Kubota et al., J. Cell. Biol. 107(4): 1589–1598 (1988) and Ponce, In Vitro Matrigel Angiogenesis Assays. Totowa, N.J.: Humana Press Inc., 2000) with minor modifications as follows. Matrigel, 0.3 ml, was added to each well of a 24-well plate. After the Matrigel had gelled, HUVEC (5×10^4 cells), trypsinized from an exponentially growing culture, were added to each well in 0.2 ml of supplemented EBM-2. Test compounds were added in duplicate for each concentration and incubated at 37° C., 5% CO2, for 18 h. The medium was aspirated the next day, and the cells were fixed and stained with Diff-Quick Fix and staining solution II (Baxter Scientific Products, McGaw, Ill.).

For assay [4], the system named is HUVEC. As to the kind of experiment: Cell cycle analysis of HUVEC by flow cytometry. Particulars: for concentration that gave close to the maximum accumulation (>70%) of HUVEC in G1: 24 h of treatment. The format is cell-based, human. As for the experimental part:
(§2) Exponentially growing HUVEC were treated with the test compounds for 24 or 48 h, and processed for cell cycle analysis. After harvesting cells by trypsin treatment, isolation and staining of cell nuclei were performed using a CycleTEST™ PLUS DNA Reagent Kit (Becton & Dickinson, Rutherford, N.J.), according to the procedure recommended by the manufacturer. Briefly, nuclei were released from cells by treatment with a nonionic detergent and trypsin. The nuclear chromatin was stabilized with spermine. Propidium iodide was used to stain the DNA. Fluorescence histograms were generated with a FACSCalibur cytometer (Becton & Dickinson, Rutherford, N.J.), using CELLQuest software.
A general note: In flow cytometry, cells or beads pass a laser one at a time.

For assay [5], the target named is T1, deoxyhypusine hydroxylase. As to the kind of experiment: Inhibition of deoxyhypusine hydroxylation in Siha cells. The format is cell-based. The conditions noted are these: 30 μM, 20 hours. The procedure:
as §1
(§3) Siha cells were incubated for 20 hours with increasing concentrations of ciclopirox and then metabolically labeled to determine the ability to inhibit DNA synthesis, as described in Example 4, and the ability to inhibit deoxyhypusine hydroxylation, as described in Example 2. Cell cycle arrest was assessed by flow cytometry, as described in Example 5.

Assay [6] has as its system prolyl 4-hydroxylase. In words: Inhibition of collagen proline 4-hydroxylation in HUVEC ([3H]proline labeling). It counts as cell-based, human. As for the experimental part: For the determination of collagen proline 4-hydroxylation, exponentially growing HUVEC were plated in 60-mm dishes. After cell attachment, ascorbic acid (50 μg/ml), β-aminopropionitrile (30 μg/ml), and the test compounds were added along with [^3H]proline (20 μCi/ml). After an 18-h incubation, labeled proteins (including collagen) released into the medium were precipitated with 10% trichloroacetic acid. After washing three times with 5% trichloroacetic acid solution, the precipitated proteins were hydrolyzed in 6N HCl at 115° C. for 24 h. Unlabeled hydroxyproline was added to each sample. Radioactive proline and hydroxyproline were separated by thin layer chromatography on silica gel-coated glass plates in 75% phenol (phenol:water, 75:25 w/w) containing 0.2 mg/ml NaCN (Brenner et al., Dünnschict-Chromatographie von Aminosäuren. Experientia 16: 378–383 (1960). The positions of proline and hydroxyproline were visualized by the ninhydrin reaction. Hydroxyproline separated from proline with Rf values of 0.45 and 0.58, respectively. The silica gel in the hydroxyproline and proline areas was scraped off, eluted with 0.5 ml of water, and the radioactivity in each spot was counted. The degree of proline hydroxylation was estimated from the ratio of [^3H]hydroxyproline to the total radioactivity in [^3H]proline plus [^3H]hydroxyproline.

Assay [7] concerns Siha cells. In words: Cell cycle arrest in Siha cells by flow cytometry. The format is cell-based, human. Particulars: 30 μm. As for the experimental part: as §2, §3
Assay [8] concerns Siha cells. In words: Inhibition of DNA synthesis in Siha cells. The format is cell-based, human. Particulars: log-phase Siha cells, 20 hours. The procedure: The test compounds were added at the indicated concentrations to exponentially growing HUVEC in 24-well plates (1×10^5 cells/well). At 10 h, [^3H]thymidine (1 μCi/well) was added. After an additional 2-h incubation, the cells were washed twice with PBS. DNA was precipitated with 5% trichloroacetic acid, washed once with 5% trichloroacetic acid, and dissolved in 0.2 ml of 0.2 N NaOH for measurement of radioactivity.
as §3

In assay [9] the test system is chick aortic arch rings. In words: Chick aortic arch ring sprouting on Matrigel. The procedure: The assay was carried out as described previously for rat aortic rings (Gho et al., 1999), supra) with a slight modification. Briefly, the aortic arches were dissected from 14-day-old chick embryos, cleaned free of unwanted tissue, and cut into 0.8 mm slices. Each ring was transferred into the center of a well of a 24-well plate to which 1.5 μl of Matrigel had just been added. Ten μl of ice-cold Matrigel were added immediately to embed the ring. When the Matrigel was solidified, 500 μl of supplemented EBM-2 were added to each well. After addition of the test compounds in sextuplicate for each concentration, the plates were incubated at 37° C. with 5% CO2, and the degree of sprouting was assessed by a blinded observer after 48 and 72 h.

Each structure is given as a SMILES string. Where “and” joins values, the source holds several entries; their conditions need not be identical. Equal entries are not always repeated. Where two headings read alike, the source gives them in different places. Bounds are passed on as bounds.

By IC50 is commonly meant the concentration at which inhibition is half-maximal. As to `c1ccc(-c2ccccn2)nc1` [2,2′-dipyridyl], the IC50 in assay [1] came to 26 µM; in assay [2] (18 h of treatment) it was 55 µM. For the same compound, in [3], the “concentration at which disruption of tube formation was manifest” value is 100 µM. In addition, the “concentration that gave close to the maximum accumulation (>70%) of HUVEC in G1” value in assay [4] stood at 100 µM.

As to `Cc1cc(C2CCCCC2)n(O)c(=O)c1` [ciclopirox], in [5], the “suppression of deoxyhypusine hydroxylation” value is “totally suppressed”. Also, the “concentration above which no [3H]hypusine was detectable (complete inhibition of deoxyhypusine hydroxylase)” value in assay [1] (20 h) was more than 10 µM. In assay [1] (20 h), the “concentration at which only [3H]hypusine but no [3H]deoxyhypusine was detected (no inhibition)” value was not above 2.5 µM. The IC50 in [1] was ~5 µM and 5 µM; in [2] (18 h, 18 h of treatment) it was approximately 10 µM. Moreover, the “inhibition of proline hydroxylation” value in assay [6] (10 μM) turned out to be 63%. Further, the “concentration at which disruption of tube formation was manifest” value in assay [3] lay in the range of 10 to 20 µM. Further, the “cell cycle effect” value in [7] is “arrest in late G1”. The “inhibition of DNA synthesis” value in [8] is “sharp, dose-dependent inhibition”. For the same compound, in assay [9] (72 h), the “relative inhibition of sprouting” value is given as “the most inhibitory”. Also, the “concentration that gave close to the maximum accumulation (>70%) of HUVEC in G1” value in assay [4] is 30 µM. For the same compound, in assay [4] (48 h treatment), the “concentration giving cell cycle arrest similar to that at 24 h with 30 μM” value is 10 µM.

`Cc1c(O)c(=O)ccn1C` [deferiprone, 1,2-dimethyl-3-hydroxypyrid-4-one]: the IC50 in assay [1] is 117 µM; in assay [2] (18 h, 18 h of treatment), 130 µM. In addition, in assay [3] (200 μM), the “inhibition of tube formation” value is recorded as “Modest inhibition”. Besides, in assay [9] (72 h of incubation), the “concentration showing a strong inhibition of sprouting” value came to 400 µM. In addition, in assay [4], the “concentration that gave close to the maximum accumulation (>70%) of HUVEC in G1” value amounted to 200 µM.

For `CC(=O)N(O)CCCCCNC(=O)CCC(=O)N(O)CCCCCNC(=O)CCC(=O)N(O)CCCCCN` [deferoxamine], the IC50 in assay [1] was 16 µM and ~16 µM; in [2] (18 h of treatment), 16 µM. In assay [6] (100 μM), the “inhibition of proline hydroxylation” value was found to be 40%. The “concentration that gave close to the maximum accumulation (>70%) of HUVEC in G1” value in assay [4] is 50 µM.

On to `NC(Cn1ccc(=O)c(O)c1)C(=O)O` (stereo not shown) [mimosine], for which the IC50 came out at 191 µM in [1] and 455 µM in assay [2] (18 h). Also, in assay [6] (400 μM), the “inhibition of proline hydroxylation” value was “only minor inhibition”. For the same compound, the “impairment of tube formation” value in assay [3] (400 μM) was “little sign of impairment”. Moreover, the “inhibition of sprout growth” value in assay [9] (400 μM, 72 h) is “moderate inhibition”. Besides, in assay [4] (400 μM, 24 h incubation), the “increase in G1” value is “did not cause a significant increase in G1”.
